This is an account of results in patent publication US9089605B2, “Quinone derivatives, pharmaceutical compositions, and uses thereof” (Indiana University Research and Technology Corporation, priority 2007, dated 2015).

In data set [1] the target is Ape1 (Homo sapiens, UniProt P27695). As to the kind of experiment: Enzymatic redox assay (EMSA, AP-1 DNA binding). In kind it is biochemical. Conditions: for IC50: EMSA, reduced Ape1, oxidized nuclear extracts (Hey-C2 cells), AP-1 DNA probe; for activity compared with the original carboxylic acids: hydroxyethylamides of 1 and 43a. In general terms: A gel shift assay detects complexes by their altered migration in electrophoresis.

Data set [2] deals with cells. The data set can be described thus: Growth inhibition assay (MTS). To be noted: for GI50: MTS, compound treatment 24 or 72 h, read-out: Cell Killing (GI50). In kind it is cell-based. Here is the method: Growth inhibitory data was also collected for all the compounds tested in the redox assay. Following the procedure of Fishel et al, cells were aliquoted into 96 well plates at a concentration of 2-4,000 cells/well in triplicate and allowed to adhere overnight. Cells were then treated with compound for either 24 or 72 h. 3-(4-5-Dimethylthiazol-2-yl)-5-(3-carboxymethoxyphenyl)-2-(4-sulfophenyl)-2H-tetrazolium salt (MTS) was added to the cells following compound treatment and the cells were incubated for an additional 4 hours at 37° C. After incubation with MTS the plates were measured for absorbance at 490 nm. The values were standardized to wells containing media alone.

Several values for one entry are separate records, joined by “and”; a condition that tells them apart may be missing. Equal entries are not always repeated.

Chain of Ape1 (P27695 whole entry): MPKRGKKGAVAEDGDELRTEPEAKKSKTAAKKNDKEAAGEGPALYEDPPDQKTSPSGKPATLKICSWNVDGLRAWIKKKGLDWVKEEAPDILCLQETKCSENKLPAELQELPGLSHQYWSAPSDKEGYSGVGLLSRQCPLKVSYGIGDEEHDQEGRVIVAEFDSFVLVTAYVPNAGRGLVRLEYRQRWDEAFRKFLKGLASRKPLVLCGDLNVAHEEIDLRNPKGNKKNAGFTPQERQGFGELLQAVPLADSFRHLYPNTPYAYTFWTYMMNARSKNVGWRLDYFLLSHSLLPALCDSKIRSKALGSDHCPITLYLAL

By IC50 is commonly meant the concentration needed to halve the response being measured. The low end stands for greater potency in that assay, the high end for weaker potency in that assay. By GI50 is commonly meant the concentration at which growth is held to half of that of the control. With `COC1=C(OC)C(=O)C(/C=C/C(=O)O)=C(C)C1=O` [Compound 10a, (E)-3-(4,5-dimethoxy-2-methyl-3,6-dioxocyclohexa-1,4-dienyl)-propenoic acid], the IC50 in data set [1] is 40 µM. The GI50 in data set [2] was 250 µM.

What is called melting point is the temperature, or range, at which the solid turns liquid. Take `COCC/C(=C\C1=C(C)C(=O)C(OC)=C(OC)C1=O)C(=O)O` [Compound 64, (E)-3-(4,5-dimethoxy-2-methyl-3,6-dioxocyclohexa-1,4-dienyl)-2-methoxyethylpropenoic acid]: the melting point is 104 to 106 °C. This compound also had an IC50 in data set [1] of 10 µM. Also, the GI50 in data set [2] turned out to be 200 µM.

As for `C/C(=C\C1=C(Br)C(=O)c2ccccc2C1=O)C(=O)O` [Compound 39a, (E)-3-(3-bromo-1,4-naphthoquinon-2-yl)-2-methylpropenoic acid], the IC50 in data set [1] is 2 µM. The GI50 in data set [2] was determined as 12.5 µM.

`O=C(O)CCC1=C(Br)C(=O)c2ccccc2C1=O` [Compound 69a, 3-(3-Bromo-1,4-naphthoquinon-2-yl)-propionic acid] registered a melting point of 156 to 157 °C. Moreover, the IC50 in data set [1] was 5 µM. The 50% growth inhibitory concentration (GI50) in data set [2] is 15 µM.

Compound `COCC/C(=C\C1=C(C)C(=O)c2ccccc2C1=O)C(=O)O` [Compound 62a, (E)-3-(3-methyl-1,4-naphthoquinon-2-yl)-2-methoxyethylpropenoic acid] yielded a melting point of 147 to 148 °C. This compound showed a half-maximal inhibitory concentration (IC50) in data set [1] of 10 µM. For the same compound, the GI50 in data set [2] came to 30 µM.

Take `C/C(=C\C1=C(Cl)C(=O)c2ccccc2C1=O)C(=O)NCCO` [Compound 73, (E)-N-(2-hydroxyethyl)-3-(3-chloro-1,4-dioxonaphthoquinon-2-yl)-2-methylpropenamide]: the “activity compared with the original carboxylic acids” value in data set [1] is “comparable in activity to the original carboxylic acids”. Also, the GI50 in data set [2] was found to be 7.5 µM.

The compound `COC(=O)/C(C)=C/C1=C(Cl)C(=O)c2ccccc2C1=O` [Compound E-44a] yielded an IC50 in data set [1] of 1 µM. Also, the GI50 in data set [2] is 17.5 µM.

Consider `CCC/C(=C\C1=C(Cl)C(=O)c2ccccc2C1=O)C(=O)O` [Compound 43b, (E)-3-(3-chloro-1,4-naphthoquinon-2-yl)-2-propylpropenoic acid], for which the melting point was 164 °C (dec.).

In the case of `COCC/C(=C\C1=C(Cl)C(=O)c2ccccc2C1=O)C(=O)O` [Compound 62c, (E)-3-(3-chloro-1,4-naphthoquinon-2-yl)-2-methoxyethylpropenoic acid], the melting point was 160 °C (dec.). This compound had an IC50 in data set [1] of 3 µM. In addition, the GI50 in data set [2] turned out to be 30 µM.

Take `C/C(=C\C1=CC(=O)c2ccccc2C1=O)C(=O)O` [Compound 30a, (E)-3-(1,4-naphthoquinon-2-yl)-2-methylpropenoic acid]: in data set [1], the IC50 was 2.5 µM. Further, the GI50 in data set [2] was 20 µM.

Take `CCCCCCCCC/C(=C\C1=C(C)C(=O)C(OC)=C(OC)C1=O)C(=O)NCCO` [Compound 72, (E)-N-(2-hydroxyethyl)-3-(3,4-dimethoxy-2-methyl-3,6-dioxocyclohexa-1,4-dienyl)-2-nonylpropenamide]: in data set [1], the IC50 was determined as 10 µM and the “activity compared with the original carboxylic acids” value was “comparable in activity to the original carboxylic acids”. Besides, the concentration for 50% growth inhibition (GI50) in data set [2] was 35 µM.

Consider `COC1=C(OC)C(=O)C(/C=C(\C)C(=O)O)=C(Cl)C1=O` [Compound 23, (E)-3-(2-chloro-4,5-dimethoxy-3,6-dioxocyclohexa-1,4-dienyl)-2-methylpropenoic acid], for which the melting point was in the range of 183 to 185 °C. In addition, in data set [1], the IC50 was 2.5 µM. In data set [2] (GI50 ratio), the “cell-based activity superior to the methyl derivative 10b, factor” value turned out to be 3. Further, the 50% growth inhibitory concentration (GI50) in data set [2] amounted to 45 µM.

Consider `CCC/C(=C\C1=C(C)C(=O)C(OC)=C(OC)C1=O)C(=O)O` [Compound 10d, (E)-3-(4,5-dimethoxy-2-methyl-3,6-dioxocyclohexa-1,4-dienyl)-2-propylpropenoic acid], for which the melting point lay in the range of 95 to 99 °C.

Compound `CCCCCCCCC/C(=C\C1=C(C)C(=O)c2ccccc2C1=O)C(=O)O` [Compound 35c, (E)-3-(3-methyl-1,4-naphthoquinon-2-yl)-2-nonylpropenoic acid] registered a melting point of 64 to 66 °C.

The compound `CC/C(=C\C1=C(C)C(=O)C(OC)=C(OC)C1=O)C(=O)O` [Compound 10c, (E)-3-(4,5-dimethoxy-2-methyl-3,6-dioxocyclohexa-1,4-dienyl)-2-ethylpropenoic acid] returned a melting point of 124 to 131 °C.

In turn, `C/C(=C/C1=C(Cl)C(=O)c2ccccc2C1=O)C(=O)O` [Compound Z-43a, (2Z)-3-(3-chloro-1,4-naphthoquinon-2-yl)-2-methylpropenoic acid] registered a melting point of 166 to 169 °C. In data set [1], this compound displayed an IC50 of 1.5 µM. In addition, the concentration for 50% growth inhibition (GI50) in data set [2] was found to be 30 µM.

For `COC1=C(/C=C(\C)C(=O)O)C(=O)c2ccccc2C1=O` [Compound 55, (E)-3-(3-methoxy-1,4-naphthoquinon-2-yl)-2-methylpropenoic acid], the melting point was 205 °C (dec.). In data set [1], this compound came in with an IC50 of 0.5 µM. In data set [2], the GI50 came to 40 µM.

In turn, `COC1=C(OC)C(=O)C(/C=C(\C)C(=O)O)=C(C)C1=O` [Compound 10b, (E)-3-(4,5-dimethoxy-2-methyl-3,6-dioxocyclohexa-1,4-dienyl)-2-methylpropenoic acid] came in with a melting point of 134 to 136 °C. Moreover, the IC50 in data set [1] is 3 to 15 µM and 3 µM. In data set [2], the GI50 turned out to be 130 µM.

With `CCC/C(=C\C1=C(Br)C(=O)c2ccccc2C1=O)C(=O)O` [Compound 39b, (E)-3-(3-bromo-1,4-naphthoquinon-2-yl)-2-propylpropenoic acid], the melting point was 145 °C (dec.).

`COC(=O)/C(C)=C\C1=C(Cl)C(=O)c2ccccc2C1=O` [Compound Z-44a, Methyl (2Z)-3-(3-chloro-1,4-naphthoquinon-2-yl)-2-methylpropenoate] returned an IC50 in data set [1] of 2 µM. The 50% growth inhibitory concentration (GI50) in data set [2] worked out at 20 µM.

In the case of `CC1=C(/C=C(\C)C(=O)O)C(=O)c2ccccc2C1=O` [Compound 35a, (E)-3-(3-methyl-1,4-naphthoquinon-2-yl)-2-methylpropenoic acid], the melting point is 195 to 196 °C. The same compound returned an IC50 in data set [1] of 15 µM. The GI50 in data set [2] was determined as 45 µM.

For `CCCC/C(=C\C1=C(C)C(=O)C(OC)=C(OC)C1=O)C(=O)O` [Compound 10e, (E)-3-(4,5-dimethoxy-2-methyl-3,6-dioxocyclohexa-1,4-dienyl)-2-butylpropenoic acid], the melting point fell in the range of 54 to 55 °C. Also, the IC50 in data set [1] is 3 to 15 µM and 15 µM. In addition, the GI50 in data set [2] was determined as 85 µM.

`CC(CC1=C(Br)C(=O)c2ccccc2C1=O)C(=O)O` (racemic) [Compound 69b, (2R/S)-3-(3-bromo-1,4-naphthoquinon-2-yl)-2-methylpropionic acid] gave an IC50 in data set [1] of 5 µM. In addition, the GI50 in data set [2] was 15 µM.

Take `CCCCCCCCC/C(=C\C1=C(C)C(=O)C(OC)=C(OC)C1=O)C(=O)O` [Compound 1, (E)-3-(4,5-dimethoxy-2-methyl-3,6-dioxocyclohexa-1,4-dienyl)-2-nonylpropenoic acid, reference compound]: the GI50 in data set [2] is 35 µM.

Take `COCC/C(=C\C1=C(Br)C(=O)c2ccccc2C1=O)C(=O)O` [Compound 62b, (E)-3-(3-bromo-1,4-naphthoquinon-2-yl)-2-methoxyethylpropenoic acid]: the melting point fell in the range of 168 to 172 °C. The IC50 in data set [1] turned out to be 0.5 µM. Further, in data set [2], the concentration for 50% growth inhibition (GI50) was found to be 25 µM.

In turn, `CCC/C(=C\C1=CC(=O)c2ccccc2C1=O)C(=O)O` [Compound 30b, (E)-3-(1,4-naphthoquinon-2-yl)-2-propylpropenoic acid] gave a melting point of 156 to 160 °C.

Compound `CSC1=C(/C=C(\C)C(=O)O)C(=O)c2ccccc2C1=O` [Compound 58, (E)-3-(3-methylsulfanyl-1,4-naphthoquinon-2-yl)-2-methylpropenoic acid] returned a melting point of 195 to 196 °C. The same compound yielded an IC50 in data set [1] of 1 µM. In addition, the GI50 in data set [2] worked out at 30 µM.

Regarding `C[C@@H]1NC(=O)N[C@@H]1CCCCCC(=O)NCCCCCCNC(=O)OC(C)(C)C` (hydrate or solvate) [Compound 111, N—(N′-tert-butoxycarbonyl-6-aminohexyl)-6-[(4R,5S)-5-methyl-imidazolidin-2-on-4-yl]hexanamide], the melting point fell in the range of 85 to 87 °C.

As for `C/C(=C\C1=C(F)C(=O)c2ccccc2C1=O)C(=O)O` [Compound 52, (E)-3-(3-fluoro-1,4-naphthoquinon-2-yl)-2-methylpropenoic acid], in data set [1], the IC50 came to 4 µM. In data set [2], the GI50 was 50 µM.

Compound `CCCC/C(=C\C1=C(C)C(=O)c2ccccc2C1=O)C(=O)O` [Compound 35b, (E)-3-(3-methyl-1,4-naphthoquinon-2-yl)-2-butylpropenoic acid] returned a melting point of 119 to 121 °C. Besides, in data set [1], the IC50 turned out to be 25 µM. For the same compound, the GI50 in data set [2] is 40 µM.

In turn, `C/C(=C\C1=C(Cl)C(=O)c2ccccc2C1=O)C(=O)O` [Compound 43a, (E)-3-(3-chloro-1,4-naphthoquinon-2-yl)-2-methylpropenoic acid] registered a melting point of 229 to 230 °C. The same compound yielded an IC50 in data set [1] of 1 µM. Also, in data set [2], the GI50 came to 15 µM.

As for `CC1(C(=O)O)OC1C1=C(Cl)C(=O)c2ccccc2C1=O` (mixture of isomers) [Compound 71, 3-(3-chloro-1,4-naphthoquinon-2-yl)-2-epoxy-2-methylpropionic acid], the 50% inhibitory concentration (IC50) in data set [1] was 4 µM. Moreover, in data set [2], the GI50 worked out at 10 µM.
